Measured values reported in publication PMC12291119, “In Vitro Selection of Cyclized, Glycosylated Peptide Antigens That Tightly Bind HIV High Mannose Patch Antibodies” (ACS Central Science, 2025).
pKd: −log10 of the molar value. Ends that are not written are not given here.

Key:
PGT122 [1] = assay: Bead-based radiometric binding assay of clones prepared as cDNA/mRNA-glycopeptide fusions; conditions: 2K CPM per sample, Protein G beads, LSC, preliminary
Method: antibodies, spun down briefly, placed on a magnet for 1 minute, and the eluent was transferred to an individual 0.2 mL PCR tube. The beads were washed with 50 µL of denaturing elute buffer, and the wash was placed into the same tube as the eluent. The combined eluent and wash represented the “bound” fraction. The beads were resuspended in 50 µL of denaturing elute buffer, vortexed, and directly placed into a vial with liquid scintillation cocktail for radioactivity measurements, though it was not included in calculations of fraction bound. Each of the tubes with the “unbound” and “bound” fractions were placed into vials for LSC. The tube in which the antibody and peptides were incubated were also measured by LSC, but not included in calculations of fraction bound. Fraction bound values for each antibody concentration after background adjustment were input into KaleidaGraph 4.1.1 for curve fitting to a […]
5. Clones Prepared as cDNA/mRNA-glycopeptide Fusions
Selected clones were also prepared as cDNA/mRNA-glycopeptide fusions for binding analysis. RNA (450-1000 pmol) was photo-crosslinked as described in Section IV.A.2 but with 10 µM transcribed RNA and 15 µM XL-PSO in 1X XL Buffer for annealing, and dilution to 100 µL for irradiation at 365 nm. XL-RNA was then purified by ethanol precipitation and 5% denaturing urea-PAGE with electroelution. Purified XL-RNA was translated in the presence of PDF/MAP and 3H-histidine for radiolabeling. Crude translation reactions were captured on Pierce™ Streptavidin UltraLink™ Resin (Thermo Scientific), subjected to reverse transcription, and cyclized as described for selection. Fusions were then washed and photo-eluted with 1X selection buffer instead of 0.2% (v/v) […]. […]
reverse transcription in preparation for photo-elution. Note: 2U3 was also cyclized despite having only one cysteine residue to better mimic its structure during selection. Fusions were then passed through 0.22 µm Ultrafree-MC Centrifugal Filters (MilliporeSigma), buffer exchanged by ethanol precipitation, and subjected to click reaction (5 µL) with Man9(GlcNAc)2-azide as described in Section II.A.8. Binding assays were performed analogously as with […]
as free peptides and cDNA/mRNA-glycopeptide fusions.
Name Click KD Ratio (No click : Click) KD Ratio (No click : Click) […]
a 2U3 was cyclized as a fusion but not as a free peptide.

PGT122 [2] = assay: Bead-based radiometric binding assay of ribosomally synthesized free peptides; conditions: free 3H-histidine-labelled peptide, no click glycosylation; 0, 100, 200, 400 nM antibody, 1 h room temperature, Protein G beads, LSC; Michaelis-Menten fit; preliminary
Method: The protocol used for cyclization while captured on resin was as follows: To 20 µL of crude translated peptide was added 80 µL of bind buffer with BME (50 mM Tris-HCl, pH 7.8, 300 mM NaCl, 5 mM BME) and 20 µL of HisPur™ Ni-NTA Resin (ThermoScientific). The mixture was tumbled at room temperature for 1 hour. Next, the mixture was spun down at 17,000 ×g, and the supernatant was carefully removed from the loosely-pelleted agarose.
The resin was washed three times with 160 µL of cyclization wash buffer with TCEP (50 mM Tris-HCl, pH 8.0, […]). To the resin was then added 160 µL of free peptide cyclization buffer (50 mM Tris-HCl, pH 8.0, 300 mM NaCl, 0.5 mM TCEP, 3.3 mM m-dibromoxylene, 33% (v/v) MeCN), and the mixture was covered in foil and tumbled at room temperature for 30 minutes. The supernatant was removed and 160 µL of cyclization wash buffer with BME (50 mM Tris-HCl, pH 8.0, 300 mM NaCl, 10 mM BME, 33% (v/v) MeCN) was added. The suspension was tumbled at room temperature for 10 minutes without aluminum foil to quench the reaction. The reaction was spun down, and the supernatant was removed. Next, the resin was resuspended in wash buffer (50 mM Tris-HCl, pH 7.8, 5 mM BME) and transferred to a 0.22 µm Ultrafree-MC Centrifugal Filter (MilliporeSigma). The tube was rinsed with 80 µL of wash buffer, and the rinse was added to the filter. The filter was then spun down at 10,000 ×g for 1 minute. The resin in the filter was washed twice with 160 µL of wash buffer. To elute the peptide, 20 µL 0.2% (v/v) TFA was added to the resin and allowed to sit at room temperature for 2 minutes before spinning down and collecting in a new tube. The elution step was carried out once more, with the eluent collected separately.
4. Radioactive Peptides for Bead-based Radiometric Binding Assay
For binding analysis, translation (50 µL) was carried out in the presence of PDF/MAP and 3H-histidine for radiolabeling. The crude peptides were purified by Ni-NTA agarose and, if the sequence contained two cysteine residues, was cyclized while captured on the Ni-NTA resin. The peptide eluents were combined and dialyzed as follows: To the combined eluents was added a solution of Triton X-100 in water for a final concentration of 0.1%.
Next, the peptides were dialyzed against 0.1% (v/v) Triton X-100 using a Slide-A-Lyzer™ MINI device (0.1 mL capacity, 3.5 kDa MWCO) (Thermo Scientific) at room temperature overnight. The dialyzed peptides were retrieved from the devices. The peptide solutions were concentrated to dryness by speedvac for the click reaction. […]
room temperature. While tumbling, Dynabeads™ Protein G (Invitrogen) were equilibrated with 1X selection buffer as follows: Steps were carried out using a multi-channel pipettor where possible. For each sequence, 8 µL of Protein G bead suspension was transferred to a 0.2 mL PCR tube in a strip. Next, 64 µL (8 bead vol.) of 1X selection buffer was added to the beads. The mixture was resuspended by gently vortexing, spun down briefly, and placed on a magnet for 1 minute. The supernatant was removed, and this wash was repeated two more times. The final supernatant was removed just prior to addition of the incubated peptide/antibody mixture. The mixture was allowed to tumble at room temperature for 30 minutes to capture antibodies and bound peptides. Next, the suspension was briefly spun down, placed on a magnet, and the supernatant was transferred to an individual 0.2 mL PCR tube. To wash the beads, 16 µL of 1X selection buffer was added, gently vortexed, spun down briefly, placed on a magnet for 1 minute, and the wash was transferred to the same PCR tube as the supernatant. This wash step was repeated twice more for a total of three washes, saved altogether with the supernatant as the “unbound” fraction. The beads were then resuspended in 50 µL of denaturing elute buffer. The suspension was heated at 95 °C for 5 minutes to denature […]

HIV pseudovirus panel = conditions: ref number not given, cited from earlier work
Excerpt: We have sought to mimic HMP epitopes without using either the entire Env protein, which contains a plethora of “distracting” epitopes that easily elicit off-target antibodies; − or short glycopeptides directly derived from the Env sequence, which may not sufficiently recapitulate the HMP structure without the conformational support of the remaining Env protein. Aiming to design glycostructures that better mimic the glycan presentation in the HMP, we have pioneered various techniques for the directed evolution of DNA, , RNA, F-RNA, or peptide-supported , glycan clusters.

[3] = cDNA/mRNA-glycopeptide fusion, click-glycosylated with Man9(GlcNAc)2-azide
[4] = cDNA/mRNA-peptide fusion, no click glycosylation
[5] = diverse/representative HIV pseudovirus panel

Substance | pKd (PGT122 [1]; [3]) | pKd (PGT122 [1]; [4]) | pKd (PGT122 [2]) | breadth (fraction of HIV pseudovirus panel neutralized) (HIV pseudovirus panel; [5]) | median IC50 (HIV pseudovirus panel; [5]) | potency (EC50) (HIV pseudovirus panel; neutralization potency)
ANPSFSVQFIVDLIGPNVMRITLSNKPFATICPITEGESHISKRFNFQLTIS [2U3c, ribosomally synthesized PGT122 selection clone; cyclized as a fusion but not as a free peptide] | 6.35 | 6.55 |  |  |  | 
AYVISFSIDQPDLDRPNIIRISIGDIRSAKCMKLDTINFAYRDDSSEVCYEK (also: sidechain bridge or staple (positions not given here)) [2B7c, ribosomally synthesized PGT122 selection clone, cyclized] | 6.84 | 7.18 | 7.53 |  |  | 
AHSLFNFQVRLKQLPLDANGAVIGDIRIAECMNHTYTPLTFYIYSNHPTDIQ [GB1, ribosomally synthesized gl-PGT121 selection clone] |  |  | 6.74 |  |  | 
AQYIDWEIDINQVPNQMNLSKPTWKSDITINKVKWSFYININQASNENTDNI [2U6, ribosomally synthesized PGT122 selection clone] | 6.76 | 7.01 | 6.78 |  |  | 
AKTKTYLIRFHLDILPNDNLRSQKIRLIFGDKATVKGMITFLNDSELEWNFE [2U1, ribosomally synthesized PGT122 selection clone, tested with and without click glycosylation] | 7.53 | 7.08 |  |  |  | 
PGT128: broad and very potent HIV bnAb binding the High Mannose Patch |  |  |  | 72% | 0.02 µg/mL | 0.02 µg/mL
ANNFICIRNIGDIRSARCMNVSAGRYAPYREFYFDITYDDFNKNVNIVITPV (also: sidechain bridge or staple (positions not given here)) [2B8c, ribosomally synthesized PGT122 selection clone, cyclized] | 6.97 | 6.75 |  |  |  | 
AKTRTPMNLSGKSNIRYFFTIDNSTMFEDLFMRFPRSKEYHIELEEFKDLIR [2U7] | 6.86 | 6.52 | 5.85 |  |  | 
AFIAYYFDLSQPNLHSPNFTLKIGDIREAQCMLTCDSAKPNPRVVPILALLI (also: sidechain bridge or staple (positions not given here)) [2B3c, ribosomally synthesized PGT122 selection clone, cyclized] | 6.85 | 7.00 | 5.35 |  |  | 
AYPVYLRLPIGDIRIASCMFGDEPNTWTRDELNDYFYTESYNPQPITITFKC (also: sidechain bridge or staple (positions not given here)) [2B2c, ribosomally synthesized PGT122 selection clone, cyclized] | 6.94 | 7.05 | 5.78 |  |  | 
ALNLYQIVEFTIDESNDIVQLQIGDIRTADCMSLNKECYNIIFFSWDNHGKN (also: sidechain bridge or staple (positions not given here)) [2B4c, ribosomally synthesized PGT122 selection clone, cyclized] | 6.81 | 7.35 | 6.80 |  |  | 
ANPRIIFFELSIRNNSLKLLRWHDTQGIFHDSMTELSQHAELPRFKFHSNAA [GU1, ribosomally synthesized gl-PGT121 selection clone] |  |  | 6.81 |  |  | 
ATLNIFSNFSIEPDSFYEIVLPIGDIRIAPCMSSFNRNGSTNNCYHFEINLF (also: sidechain bridge or staple (positions not given here)) [2B5c, ribosomally synthesized PGT122 selection clone, cyclized] | 7.07 | 6.50 | 6.67 |  |  | 
AYSIHFVCDINETPTNTSKAIFSIKCDITTPESTTRQLMITKHYHFPPTGTR (also: sidechain bridge or staple (positions not given here)) [2U8c, ribosomally synthesized PGT122 selection clone, cyclized] | 7.32 | 6.76 |  |  |  | 
